According to patent US5770363A, “Methods for diagnosing human male infertility” (priority 1995, dated 1998):
Where “and” joins values, the source holds several entries; their conditions need not be identical. Equal values may be shown once. Entries after “also recorded” stand apart in the source; their conditions may differ.

What was measured:
[1] = test system: human sperm nuclei (chromatin decondensation); test: Human sperm activation assay (HSAA): chromatin decondensation of chemically treated, permeabilized human sperm in Xenopus laevis egg extract; format: cell-based; conditions: for effect on decondensation, in words (hydroxylamine alone): 5 μM hydroxylamine; for reversal of SEGS crosslinks / restoration of decondensation, in words: SEGS-treated sperm, then hydroxylamine; for effect on sperm chromatin decondensation, in words (SEGS): SEGS-treated human sperm in vitro
[2] = test system: permeabilized human sperm; test: DTT (XEIM) pretreatment of permeabilized human sperm before HSAA; format: cell-based; conditions: 50 mM DTT in XEIM, 45 minutes on ice
Procedure: On the day that the diagnostic method is to be performed, the samples are incubated for 30 minutes at 37° C.; each sample is then suspended in 10 ml of nuclear isolation medium (NIM, 200 mM sucrose, 2.4 mM MgCl2, 10 mM Tris-Hcl and 5 mM maleic acid, pH 7.4). A sperm count is taken and an aliquot (containing 20 million sperm) is pelleted in a centrifuge for 10 minutes at 400×g, then resuspended in 10 ml of NIM containing 0.05% lysolecithin and 1 μg/ml soybean trypsin inhibitor. The mixture is kept at room temperature for 5 minutes and the sperm repelleted as before, then washed, first in NIM with 3% BSA and then with NIM containing 0.4% BSA, as described by Lohka and Masui^1. Sperm will finally be suspended in Xenopus Extract Isolation Medium (XEIM, 10 mM Tris-HCL, pH 7.5, 1.5 mM MgCl2, 100 mM KCl and 50 mM DTT) at a concentration of 25,000 sperm/μl and kept on ice (between 0° C. and 4° C.) for 45 minutes before mixing with the frog egg extract. […] Such may be the result of reducing the protamines that in mammalian sperm are cross-linked by intermolecular disulfide bonds.^67 […]

male reproductive system = conditions: in vivo; cited from earlier work
human sperm nuclei [3] = test: HSAA with frog egg extract ± aphidicolin (decondensation, recondensation, DNA synthesis of sperm nuclei); format: cell-based
Procedure: A HSAA will be set up using normal control sperm. After addition of the sperm to the egg extract containing BrdUrd (10 μM, 92) in place of ^3 H-TTP, aliquots will be taken at 15 minute time intervals throughout the 3 hours of the HSAA, with cytopreps made as previously described. However, instead of performing autoradiography, the BrdUrd staining protocol of Royere et al (1988)^131, which reference is specifically incorporated herein by reference for this purpose, will be used. The cytopreps will be fixed in cold methanol-acetic acid (3:1 v/v) followed by an RNase treatment.
The procedure requires that the DNA be partially denatured to expose incorporated BrdUrd to the specific antibody. The anti-BrdUrd antibodies that have been developed so far only bind BrdUrd in single-stranded DNA. The DNA-denaturing step will be done by placing the cytoprep slides in Copeland jars containing distilled water at 95° C. for 10 minutes. The slides will then be transferred into Copeland jars containing ice cold distilled water for 2 minutes and the sperm nuclei stained using anti-BrdUrd antibody (Boehringer Mannheim, mouse IgG) in PBS as the manufacturer's recommended dilution, followed by rhodamine-conjugated Goat anti-mouse IgG. The stained nuclei will be analyzed individually in our image analysis system.
Aphidicolin is described in Ikegami et al (1978)^101. This study will use sperm shown previously to respond normally in the HSAA.
Fluorescence intensities will be determined as previously described and plotted as fluorescence units above background fluorescence.
We will run a duplicate HSAA±aphidicolin (10 μg/ml), except minus tritiated thymidine triphosphate. After incubation, the sperm will be washed in PBS, fixed with 70% ethanol, centrifuged, and the fixative removed. The sperm will be resuspended in one volume of pretreatment solution (0.2M citric acid and 0.5% Tween 20) and incubated at RT for 20 minutes with gentle shaking. Subsequently, 9 volumes of the staining solution containing […] hydrogen phosphate and 5 μM 4', 6-diamidino-2-phenylindole (DAPI) will be added to raise the pH to ~7.0 and stain the DNA. The stained cells are stable for 24-48 hours, so can be shipped and/or transported by PI to Dr. Manimekalai's Laboratory where we will obtain flow cytometric histograms of the DNA content of the sperm nuclei. […] Estimated DNA synthesis for the sperm nuclei incubated in extract containing aphidicolin will be determined, and determine if it is in the 20-30% range (observed using the autoradiographic approach) when compared to the estimated DNA synthesis for the sperm nuclei incubated in extract without aphidicolin. […] Staining approaches that can be followed by quantitative flow cytometry include the use of Hoechst 33342 (64) and acridine orange (96).

human sperm nuclei [4] = conditions: extract containing aphidicolin; cited from earlier work
DNA polymerase alpha = conditions: cited from earlier work
rats = conditions: cited from earlier work

Compound: NO [hydroxylamine]
- effect on decondensation, in words (hydroxylamine alone) [1]: normal decondensation; also recorded: no effect on decondensation
- sperm decondensed, hydroxylamine given alone ([1]; 5 μM hydroxylamine 5 hours, pH 8.5, 15 minutes in the extract): 92.0±2.8%
- effect on decondensation, in words (hydroxylamine alone) ([1]; listed as Hydroxylamine): no effect
- sperm decondensed after crosslinking with SEGS and then treatment with hydroxylamine ([1]; 3.4 mM SEGS 30 min, then 5 μM hydroxylamine 5 hours, 15 minutes in the extract): 76% and 76.0±5.9%
- reversal of SEGS crosslinks / restoration of decondensation, in words [1]: restored, normal decondensation; also recorded: able to remove the crosslinker; also recorded: able to reverse most of the crosslinks; also recorded: reversed the damage
- reversal of SEGS crosslinks / restoration of decondensation, in words ([1]; listed as Hydroxylamine): restore normal decondensation
- effect on decondensation, in words (higher hydroxylamine concentrations) ([1]; hydroxylamine higher than 5 μM): adverse effect on decondensation

Compound: O[C@H](CS)[C@H](O)CS (racemic) [DTT, Dithiothreitol]
- effect of pretreatment on decondensation and DNA synthesis events [2]: enhance the decondensation and DNA synthesis "activation" events

Compound: O=C(O)c1cc(/N=N/c2ccc(S(=O)(=O)Nc3ccccn3)cc2)ccc1O [Sulfasalazine]
- male reproductive toxicity, in words (male reproductive system): reduced sperm count and fertilizing capability affected in treated patients

Compound: O=C(CCC(=O)ON1C(=O)CC(S(=O)(=O)O)C1=O)OCCOC(=O)CCC(=O)ON1C(=O)CC(S(=O)(=O)O)C1=O (stereo not drawn) [SEGS]
- inhibition at 3400 µM ([1]; Homo sapiens, Sperm, 3.4 mM SEGS, read-out: sperm in which decondensation was prevented): > 75%
- effect on sperm chromatin decondensation, in words (SEGS) [1]: abnormal decondensation responses; also recorded: abnormal chromatin decondensation; also recorded: did not decondense; also recorded: do not decondense
- effect on sperm chromatin decondensation, in words (SEGS) ([1]; listed as SULFO-EGS): block decondensation
- level to which decondensation is inhibited ([1]; as low as, permeabilized sperm): 20 % of the control

Compound: C[C@@]1(CO)[C@H](O)CC[C@@]2(C)[C@H]1CC[C@H]1C[C@@H]3C[C@@]12CC[C@]3(O)CO [aphidicolin]
- % labelled nuclei in extract containing aphidicolin / % labelled nuclei without aphidicolin × 100, expected (human sperm nuclei [3]; aphidicolin 10 μg/ml, 2 hours, autoradiography): 20-30%
- DNA synthesis (human sperm nuclei [3]; extract containing aphidicolin): blocked
- decondensation of sperm nuclei (human sperm nuclei [3]; extract containing aphidicolin): normal
- recondensation of sperm nuclei (human sperm nuclei [3]; extract containing aphidicolin): normal
- DNA synthesis (previously demonstrated, ref. 17) (human sperm nuclei [4]): blocked
- decondensation of sperm nuclei (previously demonstrated, ref. 17) (human sperm nuclei [4]): normal
- recondensation of sperm nuclei (previously demonstrated, ref. 17) (human sperm nuclei [4]): normal
- inhibition of DNA polymerase alpha (DNA polymerase alpha): known inhibitor of DNA polymerase alpha

Compound: O=P1(N(CCCl)CCCl)NCCCO1 (stereo not drawn) [cyclophosphamide]
- effect on pre- and postimplantation loss (rats): increasing pre- and postimplantation loss
- decondensation of sperm from treated rats (rats; six weeks treatment): do not decondense

Compound: CS(=O)(=O)OCCCCOS(C)(=O)=O [Busulfan]
- male reproductive toxicity, in words (male reproductive system): kills reserve and differentiating operamatogonia and reserve stem cell populations in the testis
